Results: patent US10072001B2, “Tank-binding kinase inhibitor compounds” (Gilead Sciences, Inc., priority 2014, dated 2018)

Legend:
IKKε = IKKε (Homo sapiens (Human), UniProt Q14164); experiment: TR-FRET kinase assay, IKKε; format: biochemical; settings: full length recombinant IKKε 0.3 nM, 2x Km ATP, 1 μM peptide, 240 min at 25° C.; geometric mean of minimum four determinations
From the text: Biological Assay for TBK1 and IKKs:

TBK1 = TBK1 (Homo sapiens (Human), UniProt Q9UHD2); experiment: TR-FRET kinase assay, TBK1; settings: read-out: TBK1-IC50; full length recombinant TBK1 2.5 nM, 2x Km ATP, 1 μM peptide, 240 min at 25° C.; geometric mean of minimum four determinations
Sequence of TBK1 (Q9UHD2 whole entry): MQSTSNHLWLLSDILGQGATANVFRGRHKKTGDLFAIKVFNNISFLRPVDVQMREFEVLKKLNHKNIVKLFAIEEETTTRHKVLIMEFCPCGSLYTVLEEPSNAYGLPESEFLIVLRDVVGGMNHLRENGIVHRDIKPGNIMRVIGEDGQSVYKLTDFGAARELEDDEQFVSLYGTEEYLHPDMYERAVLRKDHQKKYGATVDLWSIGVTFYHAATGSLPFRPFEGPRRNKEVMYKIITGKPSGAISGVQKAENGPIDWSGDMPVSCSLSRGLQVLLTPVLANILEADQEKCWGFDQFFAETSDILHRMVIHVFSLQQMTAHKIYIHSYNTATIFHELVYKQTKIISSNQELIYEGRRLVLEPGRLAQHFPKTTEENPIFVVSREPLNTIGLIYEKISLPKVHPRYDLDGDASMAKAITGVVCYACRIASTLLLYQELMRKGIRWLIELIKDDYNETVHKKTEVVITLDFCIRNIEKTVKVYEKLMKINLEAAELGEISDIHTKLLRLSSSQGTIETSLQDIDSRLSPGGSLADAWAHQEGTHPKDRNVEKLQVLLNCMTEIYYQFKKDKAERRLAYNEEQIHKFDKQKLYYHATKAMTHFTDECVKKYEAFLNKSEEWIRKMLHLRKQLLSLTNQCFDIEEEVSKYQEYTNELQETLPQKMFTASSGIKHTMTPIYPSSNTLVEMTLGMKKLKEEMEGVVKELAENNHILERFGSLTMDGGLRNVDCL

Sequence of IKKε (Q14164 whole entry): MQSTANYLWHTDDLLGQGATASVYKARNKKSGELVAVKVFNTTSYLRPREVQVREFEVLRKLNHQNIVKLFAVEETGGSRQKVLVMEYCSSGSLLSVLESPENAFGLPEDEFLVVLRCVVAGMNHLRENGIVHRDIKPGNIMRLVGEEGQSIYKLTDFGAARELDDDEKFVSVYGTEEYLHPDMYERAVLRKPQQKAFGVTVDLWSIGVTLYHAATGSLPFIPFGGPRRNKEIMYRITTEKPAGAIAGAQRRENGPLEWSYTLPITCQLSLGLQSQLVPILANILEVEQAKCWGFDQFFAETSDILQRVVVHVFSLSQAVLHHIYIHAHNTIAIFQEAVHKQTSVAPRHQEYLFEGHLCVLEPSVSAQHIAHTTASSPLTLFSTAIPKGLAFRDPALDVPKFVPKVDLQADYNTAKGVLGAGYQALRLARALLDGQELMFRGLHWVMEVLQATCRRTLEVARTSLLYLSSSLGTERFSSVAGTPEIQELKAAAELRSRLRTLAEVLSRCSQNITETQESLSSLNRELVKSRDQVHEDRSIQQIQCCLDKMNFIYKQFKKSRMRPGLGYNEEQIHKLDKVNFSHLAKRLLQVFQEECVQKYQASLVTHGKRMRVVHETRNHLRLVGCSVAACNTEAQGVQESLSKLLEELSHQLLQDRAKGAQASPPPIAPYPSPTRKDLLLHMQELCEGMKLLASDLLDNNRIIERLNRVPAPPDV

IC50 (IKKε)	IC50 (TBK1)	SMILES
0.119 µM	0.0117 µM	N#Cc1cc(-c2ccnc3[nH]c(-c4ccc(N5CCOCC5)cc4)cc23)ccc1N [Example 28, 2-amino-5-(2-(4-morpholinophenyl)-1H-pyrrolo[2,3-b]pyridin-4-yl)benzonitrile]
0.262 µM	0.383 µM	N#Cc1cc(-c2ccnc3[nH]c(C(=O)N4CCCC4)cc23)ccc1OC1CCOCC1 [Example 117, 5-(2-(pyrrolidine-1-carbonyl)-1H-pyrrolo[2,3-b]pyridin-4-yl)-2-((tetrahydro-2H-pyran-4-yl)oxy)benzonitrile]
0.0554 µM	0.0794 µM	N#Cc1cc(-c2ccnc3[nH]c(C(=O)NC4CC4)cc23)ccc1OC1CCOCC1 [Example 59, 4-(3-cyano-4-((tetrahydro-2H-pyran-4-yl)oxy)phenyl)-N-cyclopropyl-1H-pyrrolo[2,3-b]pyridine-2-carboxamide]
0.0018 µM	0.00124 µM	N#Cc1cc(-c2ncnc3[nH]c(-c4ccc(OCCN5CCCC5)cc4)cc23)ccc1OC1CCOCC1 [Example 226, 5-(6-(4-(2-(pyrrolidin-1-yl)ethoxy)phenyl)-7H-pyrrolo[2,3-d]pyrimidin-4-yl)-2-((tetrahydro-2H-pyran-4-yl)oxy)benzonitrile]
0.00799 µM	0.00436 µM	N#Cc1cc(-c2ncnc3[nH]c(-c4cnc5c(c4)NCCO5)cc23)ccc1OC1CCOCC1 [Example 189, 5-(6-(2,3-dihydro-1H-pyrido[2,3-b][1,4]oxazin-7-yl)-7H-pyrrolo[2,3-d]pyrimidin-4-yl)-2-((tetrahydro-2H-pyran-4-yl)oxy)benzonitrile]
> 1 µM	> 1 µM	N#Cc1cc(-c2cnnc3[nH]c(-c4ccc(N5CCOCC5)cc4)nc23)ccc1OC1CCOCC1 [Example 401, 5-(8-(4-morpholinophenyl)-9H-imidazo[4,5-c]pyridazin-6-yl)-2-((tetrahydro-2H-pyran-4-yl)oxy)benzonitrile]
1 µM	1 µM	COc1ccc(C#N)cc1-c1ncnc2[nH]c(-c3ccc(N4CCOCC4)cc3)cc12 [Example 133, 4-methoxy-3-(6-(4-morpholinophenyl)-7H-pyrrolo[2,3-d]pyrimidin-4-yl)benzonitrile]
0.205 µM	0.184 µM	N#Cc1cc(-c2ccnc3[nH]c(C#CCO)cc23)ccc1OC1CCOCC1 [Example 148, 5-(2-(3-hydroxyprop-1-yn-1-yl)-1H-pyrrolo[2,3-b]pyridin-4-yl)-2-((tetrahydro-2H-pyran-4-yl)oxy)benzonitrile]
0.291 µM	1 µM	CN1CCN(C(=O)c2cc3c(-c4ccc(OC5CCOCC5)c(C#N)c4)ccnc3[nH]2)CC1 [Example 118, 5-(2-(4-methylpiperazine-1-carbonyl)-1H-pyrrolo[2,3-b]pyridin-4-yl)-2-((tetrahydro-2H-pyran-4-yl)oxy)benzonitrile]
0.00499 µM	0.000821 µM	CC(C)(O)c1ccc(-c2cc3c(-c4ccc(OC5CCOCC5)c(C#N)c4)ncnc3[nH]2)cc1 [Example 109, 5-(6-(4-(2-hydroxypropan-2-yl)phenyl)-7H-pyrrolo[2,3-d]pyrimidin-4-yl)-2-((tetrahydro-2H-pyran-4-yl)oxy)benzonitrile]
0.0348 µM	0.0239 µM	Cn1nccc1-c1cc2c(-c3ccc(OC4CCOCC4)c(C#N)c3)ccnc2[nH]1 [Example 181, 5-(2-(1-methyl-1H-pyrazol-5-yl)-1H-pyrrolo[2,3-b]pyridin-4-yl)-2-((tetrahydro-2H-pyran-4-yl)oxy)benzonitrile]
0.00225 µM	0.00392 µM	CN1CCN(c2ccc(-c3nc4c(-c5ccc(OC6CCN(C(=O)C(F)F)CC6)c(C#N)c5)ncnc4[nH]3)cc2)CC1 [Example 268, 2-((1-(2,2-difluoroacetyl)piperidin-4-yl)oxy)-5-(8-(4-(4-methylpiperazin-1-yl)phenyl)-9H-purin-6-yl)benzonitrile]
0.279 µM	0.0369 µM	CC(C)(O)c1ccc(-c2cc3c(-c4ccc(CN5CCOCC5)c(C#N)c4)ncnc3[nH]2)cc1 [Example 111, 5-(6-(4-(2-hydroxypropan-2-yl)phenyl)-7H-pyrrolo[2,3-d]pyrimidin-4-yl)-2-(morpholinomethyl)benzonitrile]
0.321 µM	0.0568 µM	N#CCC(=O)N1CC[C@H](Oc2ccc(-c3ccnc4[nH]c(-c5ccc(N6CCOCC6)cc5)cc34)cc2C#N)C1 [Example 24, (S)-2-((1-(2-cyanoacetyl)pyrrolidin-3-yl)oxy)-5-(2-(4-morpholinophenyl)-1H-pyrrolo[2,3-b]pyridin-4-yl)benzonitrile]
0.00391 µM	0.00588 µM	N#Cc1cc(-c2ncnc3[nH]c(-c4ccc(OCCN5CCCC5)cc4)cc23)ccc1OCC1CC1 [Example 138, 2-(cyclopropylmethoxy)-5-(6-(4-(2-(pyrrolidin-1-yl)ethoxy)phenyl)-7H-pyrrolo[2,3-d]pyrimidin-4-yl)benzonitrile]
> 1 µM	> 1 µM	CC(C)(C)OC(=O)N1CC[C@@H](Oc2ccc(-c3ccnc4[nH]c(-c5ccc(N6CCOCC6)cc5)nc34)cc2C#N)C1 [Example 302, (R)-tert-butyl 3-(2-cyano-4-(2-(4-morpholinophenyl)-3H-imidazo[4,5-b]pyridin-7-yl)phenoxy)pyrrolidine-1-carboxylate]
0.00699 µM	0.00309 µM	N#Cc1cc(-c2ccnc3[nH]c(-c4ccc(C5(O)COC5)cc4)cc23)ccc1OC1CCOCC1 [Example 8, 5-(2-(4-(3-hydroxyoxetan-3-yl)phenyl)-1H-pyrrolo[2,3-b]pyridin-4-yl)-2-((tetrahydro-2H-pyran-4-yl)oxy)benzonitrile]
0.000481 µM	0.00105 µM	COc1cc(-c2cc3c(-c4ccc(O[C@H]5CCN(C(=O)CO)C[C@H]5F)c(C#N)c4)ncnc3[nH]2)ccc1N1CCN(C2COC2)CC1 [Example 145, 2-(((3R,4S)-3-fluoro-1-(2-hydroxyacetyl)piperidin-4-yl)oxy)-5-(6-(3-methoxy-4-(4-(oxetan-3-yl)piperazin-1-yl)phenyl)-7H-pyrrolo[2,3-d]pyrimidin-4-yl)benzonitrile]
0.0127 µM	0.0045 µM	N#Cc1cc(-c2ccnc3[nH]c(-c4ccc(N5CCOCC5)cc4)nc23)ccc1O[C@@H]1CCN(C(=O)CO)C1 [Example 196, (R)-2-((1-(2-hydroxyacetyl)pyrrolidin-3-yl)oxy)-5-(2-(4-morpholinophenyl)-3H-imidazo[4,5-b]pyridin-7-yl)benzonitrile]
0.00029 µM	0.0009 µM	CN1CCN(c2ccc(-c3cc4c(-c5ccc(OC6CCOCC6)c(C#N)c5)ccnc4[nH]3)cc2)CC1 [Example 82, 5-(2-(4-(4-methylpiperazin-1-yl)phenyl)-1H-pyrrolo[2,3-b]pyridin-4-yl)-2-((tetrahydro-2H-pyran-4-yl)oxy)benzonitrile]
0.00112 µM	0.00156 µM	CN1CCN(C(=O)c2ccc(-c3cc4c(-c5ccc(OC6CCN(C(=O)CO)CC6)c(C#N)c5)ncnc4[nH]3)cc2)CC1 [Example 161, 2-((1-(2-Hydroxyacetyl)piperidin-4-yl)oxy)-5-(6-(4-(4-methylpiperazine-1-carbonyl)phenyl)-7H-pyrrolo[2,3-d]pyrimidin-4-yl)benzonitrile]
0.096 µM	0.0371 µM	N#Cc1cc(-c2ncnc3[nH]c(-c4ccc(C5CCN(CC(F)(F)F)CC5)cc4)nc23)ccc1OC1CCNCC1 [Example 261, 2-(piperidin-4-yloxy)-5-(8-(4-(1-(2,2,2-trifluoroethyl)piperidin-4-yl)phenyl)-9H-purin-6-yl)benzonitrile]
0.00342 µM	0.0023 µM	N#Cc1cc(-c2ccnc3[nH]c(-c4ccc(N5CCOCC5)cc4)nc23)ccc1OC1CCN(C(=O)CO)CC1 [Example 198, 2-((1-(2-hydroxyacetyl)piperidin-4-yl)oxy)-5-(2-(4-morpholinophenyl)-3H-imidazo[4,5-b]pyridin-7-yl)benzonitrile]
0.00864 µM	0.00234 µM	C[C@H](O)C(=O)N1CCC(Oc2ccc(-c3ncnc4[nH]c(-c5ccc(N6CCOCC6)cc5)nc34)cc2C#N)CC1 [Example 234, (S)-2-((1-(2-hydroxypropanoyl)piperidin-4-yl)oxy)-5-(8-(4-morpholinophenyl)-9H-purin-6-yl)benzonitrile]
0.667 µM	1 µM	N#Cc1cc(-c2ccnc3[nH]c(C(=O)N4CCOCC4)cc23)ccc1OC1CCOCC1 [Example 116, 5-(2-(morpholine-4-carbonyl)-1H-pyrrolo[2,3-b]pyridin-4-yl)-2-((tetrahydro-2H-pyran-4-yl)oxy)benzonitrile]
0.0338 µM	0.00382 µM	N#Cc1cc(-c2ncnc3[nH]c(-c4ccc(N5CCOCC5)cc4)cc23)ccc1OC1CCS(=O)(=O)CC1 [Example 240, 2-((1,1-dioxidotetrahydro-2H-thiopyran-4-yl)oxy)-5-(6-(4-morpholinophenyl)-7H-pyrrolo[2,3-d]pyrimidin-4-yl)benzonitrile]
0.242 µM	0.0148 µM	N#Cc1cc(-c2ccnc3[nH]c(-c4ccc(N5CCOCC5)cc4)cc23)cnc1OC1CCOCC1 [Example 29, 5-(2-(4-morpholinophenyl)-1H-pyrrolo[2,3-b]pyridin-4-yl)-2-((tetrahydro-2H-pyran-4-yl)oxy)nicotinonitrile]
> 0.875 µM	0.0389 µM	C[C@H](O)C(=O)N1CC[C@@H](Oc2ccc(-c3ncnc4[nH]c(-c5ccc(N6CCOCC6)cc5)nc34)cc2C#N)C1 [Example 210, 2-(((R)-1-((S)-2-hydroxypropanoyl)pyrrolidin-3-yl)oxy)-5-(8-(4-morpholinophenyl)-9H-purin-6-yl)benzonitrile]
0.0069 µM	0.00102 µM	COc1cc(-c2cc3c(-c4ccc(OC5CCOCC5)c(C#N)c4)ncnc3[nH]2)ccc1N1CCN(C2COC2)CC1 [Example 143, 5-(6-(3-methoxy-4-(4-(oxetan-3-yl)piperazin-1-yl)phenyl)-7H-pyrrolo[2,3-d]pyrimidin-4-yl)-2-((tetrahydro-2H-pyran-4-yl)oxy)benzonitrile]
